Source: patent US9266883B2, “Ring-fused bicyclic pyridyl derivatives as FGFR4 inhibitors” (Novartis AG, priority 2013, dated 2016)

How the values were obtained:
[1] = biological target: FGFR4 (GST-FGFR4(388-802)) (Homo sapiens (Human), UniProt P22455); test: In-vitro biochemical kinase assay for FGFR4 (Caliper microfluidic mobility shift); settings: read-out: Biochemical FGFR4 IC50
Tel-FGFR4 = Tel-FGFR4 (Homo sapiens (Human), UniProt P22455); test: In vitro cellular kinase assay for FGFR4 (BaF3-Tel-FGFR4 cells, MSD capture ELISA of tyrosine phosphorylation); type: cell-based; settings: BaF3-Tel-FGFR4 cells, 1 hour incubation; read-out: Cellular BaF3 FGFR4 IC50
[2] = system: HuH-7 hepatocellular carcinoma cells; test: CellTiter Glo (CTG) Assay; settings: Homo sapiens, Huh-7, 72 h, read-out: HUH7 proliferation (nM) CTG
FGFR3 (411-806) = FGFR3 (411-806) (Homo sapiens (Human), UniProt P22607); test: In vitro biochemical assay for FGFR3
FGFR2 (406-821) = FGFR2 (406-821) (Homo sapiens (Human), UniProt P21802); test: In vitro biochemical assay for FGFR2
FGFR1 (407-822) = FGFR1 (407-822) (Homo sapiens (Human), UniProt P11362); test: In vitro biochemical assay for FGFR1
Sequence of FGFR1 (407-822) (P11362 407-822): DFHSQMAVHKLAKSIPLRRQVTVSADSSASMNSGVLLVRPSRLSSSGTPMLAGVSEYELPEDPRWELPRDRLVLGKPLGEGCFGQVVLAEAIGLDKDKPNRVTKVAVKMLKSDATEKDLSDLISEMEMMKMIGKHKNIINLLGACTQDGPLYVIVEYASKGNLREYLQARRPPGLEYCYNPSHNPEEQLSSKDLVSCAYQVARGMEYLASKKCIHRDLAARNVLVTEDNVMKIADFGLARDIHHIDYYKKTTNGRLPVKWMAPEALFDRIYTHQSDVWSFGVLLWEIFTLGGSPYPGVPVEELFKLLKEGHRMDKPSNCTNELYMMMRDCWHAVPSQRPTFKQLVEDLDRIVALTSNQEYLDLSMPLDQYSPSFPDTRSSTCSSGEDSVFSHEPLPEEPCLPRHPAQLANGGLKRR

Sequence of Tel-FGFR4 (P22455 other isoform, or with tags, fused parts or gaps): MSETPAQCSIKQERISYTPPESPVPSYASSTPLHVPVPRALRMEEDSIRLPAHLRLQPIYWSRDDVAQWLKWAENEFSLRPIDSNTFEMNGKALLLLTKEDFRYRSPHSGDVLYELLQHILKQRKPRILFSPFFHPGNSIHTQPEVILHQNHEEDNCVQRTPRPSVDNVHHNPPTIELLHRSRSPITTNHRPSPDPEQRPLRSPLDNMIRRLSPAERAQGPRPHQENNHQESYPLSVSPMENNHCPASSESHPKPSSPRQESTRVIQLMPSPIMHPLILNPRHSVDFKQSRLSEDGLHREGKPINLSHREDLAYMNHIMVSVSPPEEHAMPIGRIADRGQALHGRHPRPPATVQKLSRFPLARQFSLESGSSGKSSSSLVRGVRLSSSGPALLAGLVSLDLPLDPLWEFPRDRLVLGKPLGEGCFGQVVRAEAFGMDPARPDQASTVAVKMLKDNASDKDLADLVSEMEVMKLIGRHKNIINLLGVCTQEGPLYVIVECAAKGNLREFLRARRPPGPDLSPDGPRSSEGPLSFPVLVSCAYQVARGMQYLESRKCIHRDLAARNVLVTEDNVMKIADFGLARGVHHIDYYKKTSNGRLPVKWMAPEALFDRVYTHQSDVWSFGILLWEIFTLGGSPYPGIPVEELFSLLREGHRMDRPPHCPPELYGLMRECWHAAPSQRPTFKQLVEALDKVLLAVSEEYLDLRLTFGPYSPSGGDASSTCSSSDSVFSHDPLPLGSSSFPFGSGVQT
Sequence of FGFR3 (411-806) (P22607 411-806): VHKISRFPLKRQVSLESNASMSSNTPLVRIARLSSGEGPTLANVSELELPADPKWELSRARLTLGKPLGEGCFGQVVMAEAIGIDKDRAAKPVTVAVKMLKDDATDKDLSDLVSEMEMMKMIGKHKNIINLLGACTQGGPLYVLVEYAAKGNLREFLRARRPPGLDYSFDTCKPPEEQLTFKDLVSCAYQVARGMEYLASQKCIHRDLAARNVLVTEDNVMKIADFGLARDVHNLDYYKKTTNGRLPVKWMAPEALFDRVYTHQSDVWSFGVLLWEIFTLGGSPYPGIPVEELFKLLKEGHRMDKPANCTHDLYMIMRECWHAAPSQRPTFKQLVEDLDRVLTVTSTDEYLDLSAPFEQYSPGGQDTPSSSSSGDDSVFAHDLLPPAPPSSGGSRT
Sequence of FGFR2 (406-821) (P21802 406-821): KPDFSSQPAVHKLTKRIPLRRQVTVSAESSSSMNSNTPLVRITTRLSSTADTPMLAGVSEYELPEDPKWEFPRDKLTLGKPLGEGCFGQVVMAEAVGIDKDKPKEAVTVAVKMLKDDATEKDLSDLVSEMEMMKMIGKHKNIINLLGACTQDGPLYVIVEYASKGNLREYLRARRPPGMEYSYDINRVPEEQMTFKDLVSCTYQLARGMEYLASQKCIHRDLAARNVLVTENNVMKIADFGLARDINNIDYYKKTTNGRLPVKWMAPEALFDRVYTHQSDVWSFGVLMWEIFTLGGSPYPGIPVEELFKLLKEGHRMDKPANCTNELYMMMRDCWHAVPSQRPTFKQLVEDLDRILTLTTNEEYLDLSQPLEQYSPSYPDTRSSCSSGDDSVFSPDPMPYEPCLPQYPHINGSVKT
Sequence of FGFR4 (GST-FGFR4(388-802)) (P22455 388-802): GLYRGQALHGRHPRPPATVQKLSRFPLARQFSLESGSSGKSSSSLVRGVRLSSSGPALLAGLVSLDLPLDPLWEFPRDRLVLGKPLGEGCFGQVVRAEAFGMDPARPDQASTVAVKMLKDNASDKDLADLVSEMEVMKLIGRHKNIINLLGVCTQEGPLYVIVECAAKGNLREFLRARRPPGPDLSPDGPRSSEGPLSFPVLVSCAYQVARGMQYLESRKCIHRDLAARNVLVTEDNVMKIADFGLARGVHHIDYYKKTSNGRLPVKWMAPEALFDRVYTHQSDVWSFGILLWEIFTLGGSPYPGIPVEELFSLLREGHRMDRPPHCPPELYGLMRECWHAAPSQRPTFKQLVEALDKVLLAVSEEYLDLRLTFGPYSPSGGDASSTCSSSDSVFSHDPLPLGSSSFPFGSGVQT

Structure (SMILES) | IC50 [1] | IC50 (Tel-FGFR4) | IC50 [2] | IC50 (FGFR3 (411-806)) | IC50 (FGFR2 (406-821)) | IC50 (FGFR1 (407-822))
COCCNc1cc(NC(=O)N2CCCc3cc(CN4CC[C@H](O)C4=O)c(C=O)nc32)ncc1C#N [Example 100, (S)-N-(5-cyano-4-((2-methoxyethyl)amino)pyridin-2-yl)-7-formyl-6-((3-hydroxy-2-oxopyrrolidin-1-yl)methyl)-3,4-dihydro-1,8-naphthyridine-1(2H)-carboxamide] | 0.9 nM | 5.3 nM | 23.5 nM |  |  | 
CC(=O)N(C)Cc1cc2c(nc1C=O)N(C(=O)Nc1cc(NCCOC(F)(F)F)c(C#N)cn1)CCC2 [Example 188, N-(5-cyano-4-((2-(trifluoromethoxy)ethyl)amino)pyridin-2-yl)-7-formyl-6-((N-methylacetamido)methyl)-3,4-dihydro-1,8-naphthyridine-1(2H)-carboxamide] | 0.4 nM | 5.2 nM | 59 nM |  |  | 
N#Cc1cnc(NC(=O)N2CCCc3ccc(C=O)nc32)nc1 [Example 8, N-(5-cyanopyrimidin-2-yl)-7-formyl-3,4-dihydro-1,8-naphthyridine-1(2H)-carboxamide] |  |  |  | > 10 µM | > 10 µM | > 10 µM
COC[C@@H](Oc1cc(NC(=O)N2CCCc3cc(C(F)F)c(C=O)nc32)ncc1C#N)C(F)(F)F [Example 173, (R)-N-(5-cyano-4-((1,1,1-trifluoro-3-methoxypropan-2-yl)oxy)pyridin-2-yl)-6-(difluoromethyl)-7-formyl-3,4-dihydro-1,8-naphthyridine-1(2H)-carboxamide] | 33 nM | 142 nM | 1360 nM |  |  | 
N#Cc1cnc(NC(=O)N2CCCc3cc(CO)c(C=O)nc32)cc1NC1CCOC1 (racemic) [Example 56, N-(5-cyano-4-((tetrahydrofuran-3-yl)amino)pyridin-2-yl)-7-formyl-6-(hydroxymethyl)-3,4-dihydro-1,8-naphthyridine-1(2H)-carboxamide] |  |  |  | > 10 µM | > 10 µM | > 10 µM
COCCOc1cc(NC(=O)N2CCCc3ccc(C=O)nc32)ncc1C#N [Example 23, N-(5-cyano-4-(2-methoxyethoxyl)pyridin-2-yl)-7-formyl-3,4-dihydro-1,8-naphthyridine-1(2H)-carboxamide] |  |  |  | > 10 µM | > 10 µM | > 10 µM
N#Cc1ccc(NC(=O)N2CCCCc3ccc(C=O)nc32)nc1 [Example 201, N-(5-cyanopyridin-2-yl)-2-formyl-7,8-dihydro-5H-pyrido[2,3-b]azepine-9(6H)-carboxamide] |  |  |  | > 10 µM | > 10 µM | > 10 µM
N#Cc1cnc(NC(=O)N2CCCc3cc(CO)c(C=O)nc32)cc1O[C@@H]1CCOC1 [Example 49, (R)-N-(5-cyano-4-((tetrahydrofuran-3-yl)oxy)pyridin-2-yl)-7-formyl-6-(hydroxymethyl)-3,4-dihydro-1,8-naphthyridine-1(2H)-carboxamide] |  |  |  | > 10 µM | > 10 µM | > 10 µM
N#Cc1cnc(NC(=O)N2CCCc3cc(CN4CCCC4=O)c(C=O)nc32)cc1OCC1CCNC(=O)C1 (racemic) [Example 225, N-(5-cyano-4-((2-oxopiperidin-4-yl)methoxy)pyridin-2-yl)-7-formyl-6-((2-oxopyrrolidin-1-yl)methyl)-3,4-dihydro-1,8-naphthyridine-1(2H)-carboxamide] | 5.7 nM | 76.5 nM | 1000 nM |  |  | 
CC(C)Oc1cc(NC(=O)N2CCc3ccc(C=O)nc32)ncc1C#N [Example 234, N-(5-cyano-4-isopropoxypyridin-2-yl)-6-formyl-2,3-dihydro-1H-pyrrolo[2,3-b]pyridine-1-carboxamide] |  |  |  | > 10 µM | > 10 µM | > 10 µM
COCCOc1cc(NC(=O)N2CCCc3cc(C(F)F)c(C=O)nc32)ncc1C#N [Example 63, N-(5-cyano-4-(2-methoxyethoxyl)pyridin-2-yl)-6-(difluoromethyl)-7-formyl-3,4-dihydro-1,8-naphthyridine-1(2H)-carboxamide] |  |  |  | > 10 µM | > 10 µM | > 10 µM
N#Cc1cnc(NC(=O)N2CCCc3cc(CO)c(C=O)nc32)cc1O[C@H]1CCOC1 [Example 50, (S)-N-(5-cyano-4-((tetrahydrofuran-3-yl)oxy)pyridin-2-yl)-7-formyl-6-(hydroxymethyl)-3,4-dihydro-1,8-naphthyridine-1(2H)-carboxamide] |  |  |  | > 10 µM | > 10 µM | > 10 µM
COCCNc1cc(NC(=O)N2CCCc3cc(CN4C[C@@H](C)N[C@@H](C)C4)c(C=O)nc32)ncc1C#N [Example 242, N-(5-cyano-4-((2-methoxyethyl)amino)pyridin-2-yl)-6-(((3R,5S)-3,5-dimethylpiperazin-1-yl)methyl)-7-formyl-3,4-dihydro-1,8-naphthyridine-1(2H)-carboxamide] | 2.6 nM | 27 nM | 1780 nM |  |  | 
COCCOc1cc(NC(=O)N2CCCc3cc(CO)c(C=O)nc32)ncc1C#N [Example 39, N-(5-cyano-4-(2-methoxyethoxyl)pyridin-2-yl)-7-formyl-6-(hydroxymethyl)-3,4-dihydro-1,8-naphthyridine-1(2H)-carboxamide] |  |  |  | > 10 µM | > 10 µM | > 10 µM
COCCNc1cc(NC(=O)N2CCCc3cc(-n4ccnc4)c(C=O)nc32)ncc1C#N [Example 254, N-(5-cyano-4-((2-methoxyethyl)amino)pyridin-2-yl)-7-formyl-6-(1H-imidazol-1-yl)-3,4-dihydro-1,8-naphthyridine-1(2H)-carboxamide] | 1.1 nM | 44.5 nM | 1160 nM |  |  | 
COCCNc1cc(NC(=O)N2CCCc3cc(CN4CC[C@@H](O)C4=O)c(C=O)nc32)ncc1C#N [Example 105, (R)-N-(5-cyano-4-((2-methoxyethyl)amino)pyridin-2-yl)-7-formyl-6-((3-hydroxy-2-oxopyrrolidin-1-yl)methyl)-3,4-dihydro-1,8-naphthyridine-1(2H)-carboxamide] | 0.8 nM | 6.2 nM | 32.5 nM |  |  | 
N#Cc1cnc(NC(=O)N2CCCc3cc(CO)c(C=O)nc32)cc1OCC1CCCCO1 (racemic) [Example 44, N-(5-cyano-4-((tetrahydro-2H-pyran-2-yl)methoxy)pyridin-2-yl)-7-formyl-6-(hydroxymethyl)-3,4-dihydro-1,8-naphthyridine-1(2H)-carboxamide] | 8.1 nM | 31.3 nM | 1230 nM |  |  | 
N#Cc1cnc(NC(=O)N2CCCc3cc(CO)c(C=O)nc32)cc1N[C@@H]1[C@H]2CC[C@H](C2)[C@@H]1CO (racemic) [Example 65, N-(5-cyano-4-(((1S*,2R*,3S*,4R*)-3-(hydroxymethyl)bicyclo[2.2.1]heptan-2-yl)amino)pyridin-2-yl)-7-formyl-6-(hydroxymethyl)-3,4-dihydro-1,8-naphthyridine-1(2H)-carboxamide] | 0.8 nM | 14.6 nM | 65 nM |  |  | 
COCCNc1cc(NC(=O)N2CCCc3cc(N4CCOC4=O)c(C=O)nc32)ncc1C#N [Example 263, N-(5-cyano-4-((2-methoxyethyl)amino)pyridin-2-yl)-7-formyl-6-(2-oxooxazolidin-3-yl)-3,4-dihydro-1,8-naphthyridine-1(2H)-carboxamide] | 0.2 nM | 11 nM | 894 nM |  |  | 
CCc1cc(NC(=O)N2CCCc3cc(C=O)c(C=O)nc32)ncc1C#N [Example 106, N-(5-cyano-4-ethylpyridin-2-yl)-6,7-diformyl-3,4-dihydro-1,8-naphthyridine-1(2H)-carboxamide] | 95 nM | 2530 nM | > 3000 nM |  |  | 
CC(C)Oc1cc(NC(=O)N2CCCc3cc(CN(C)C(=O)CN(C)C)c(C=O)nc32)ncc1C#N [Example 145, N-(5-cyano-4-isopropoxypyridin-2-yl)-6-((2-(dimethylamino)-N-methylacetamido)methyl)-7-formyl-3,4-dihydro-1,8-naphthyridine-1(2H)-carboxamide] | 0.4 nM | 15 nM | 154 nM |  |  | 
COCCNc1cc(NC(=O)N2CCCc3cc(CN(CCN(C)C)S(C)(=O)=O)c(C=O)nc32)ncc1C#N [Example 144, N-(5-cyano-4-((2-methoxyethyl)amino)pyridin-2-yl)-6-((N-(2-(dimethylamino)ethyl)methylsulfonamido)methyl)-7-formyl-3,4-dihydro-1,8-naphthyridine-1(2H)-carboxamide] | 2.3 nM | 18.5 nM | 504 nM |  |  | 
COCCNc1cc(NC(=O)N2CCCc3cc(C4CCOCC4)c(C=O)nc32)ncc1C#N [Example 249, N-(5-cyano-4-((2-methoxyethyl)amino)pyridin-2-yl)-7-formyl-6-(tetrahydro-2H-pyran-4-yl)-3,4-dihydro-1,8-naphthyridine-1(2H)-carboxamide] |  |  | 222 nM |  | > 10 µM | > 10 µM
COC(C)CNc1cc(NC(=O)N2CCCc3cc(CO)c(C=O)nc32)ncc1C#N (racemic) [Example 57, N-(5-cyano-4-((2-methoxypropyl)amino)pyridin-2-yl)-7-formyl-6-(hydroxymethyl)-3,4-dihydro-1,8-naphthyridine-1(2H)-carboxamide] | 3.9 nM | 11.3 nM | 436 nM |  |  | 
CC(C)n1cnc2cnc(NC(=O)N3CCCc4cc(CN5CCCC5=O)c(C=O)nc43)cc21 [Example 220, 7-formyl-N-(1-isopropyl-1H-imidazo[4,5-c]pyridin-6-yl)-6-((2-oxopyrrolidin-1-yl)methyl)-3,4-dihydro-1,8-naphthyridine-1(2H)-carboxamide] | 96 nM | 94 nM | > 3000 nM |  |  | 
